Active and inactive are the calls of the source.

A short description of assay [1]: cells. The note with it: HEK293.
A short description of assay [2]: non-specific 3'UTR reporter inhibition in Clone20-Shn3RL – cell-based, Renilla luciferase, cherry-picked, counter-screen for Shn3 inhibitor project, dose response (AID 624133). The class given is functional.
Assay [3] can be described thus: reduction of Shn3 3'UTR-driven luciferase in osteoblasts – cell-based, Clone20 osteoblasts, firefly luciferase, cherry-picked, dose response (AID 624132).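 Note: firefly luciferase luminescence from reporter carrying the Shn3 3'UTR in osteoblasts.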 The class given is functional.
A short description of assay [4]: Shn3 3'UTR reporter signal decrease – cell-based, Clone20 osteoblasts, firefly luciferase, cherry-pick, set 2, Schnurri-3 inhibitor project, dose response (AID 720490).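 Note: actives lower the luminescence signal as inhibitors.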 The class given is functional.
Assay [5] is described as follows: growth inhibition of yeast DHODH-expressing 3D7 parasites – SYBR Green, dry powder samples, dose response (AID 1159570).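 Note: parasite growth measured after 72 hours of compound exposure.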 The class given is functional, cell-based.
Assay [6] is described as follows: inhibitors acting on PAX2 in cells – cell-based, plate reader, dry powder samples, selectivity assay for PAX8 inhibitor project, dose response (AID 743048).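 Note: HEK293 cells carrying a WT1 promoter luciferase reporter driven by expressed Pax2; potency is for inhibition of Pax2 driven reporter signal.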 The class given is functional.
A short description of assay [7]: PAX5 cellular inhibition readout – cell-based, plate reader, dry powder samples, selectivity assay for PAX8 inhibitor project, dose response (AID 743047).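 Note: HEK293 cells carrying a Pax5 driven CD19 promoter luciferase reporter; potency of inhibitors that lower reporter luminescence.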 The class given is functional.
Assay [8] in a line: PAX8-dependent cell viability loss – plate reader, dry powder, dose response (AID 743049). The class given is functional, cell-based.
Assay [9] can be described thus: OVCAR8 cell viability loss – plate reader, dry powder samples, PAX8 project, dose response (AID 743197). The following applies: OVCAR-8. The class given is functional, cell-based.
Assay [10] can be described thus: toxicity to human HepG2 hepatoma cells – cell-based, plate reader, dry powder samples, cytotoxicity control, dose response (AID 1159569).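 Note: inhibitor potency with signal falling toward the positive control level.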 The class given is functional.
In assay [11] the target is Paired box protein Pax-8 (Homo sapiens, UniProt Q06710). Put plainly: PAX8 transcriptional activity inhibition in RMG-I – RMG-I cells, luciferase, cherry-pick, dose response (AID 687027).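 Note: luciferase reporter driven by Pax8 target thyroperoxidase promoter measured by SteadyGlo luminescence.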 The class given is functional, cell-based.
Assay [12] is described as follows: growth inhibition of PfATP4-mutant resistant parasites – NITD609-resistant line, SYBR Green, dry powder, dose response (AID 1159571).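 Note: parasites synchronized at ring stage by sorbitol before testing.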 The class given is functional, cell-based.
Assay [13] can be described thus: P. falciparum Dd2 growth inhibitors, dose response, SYBR Green, cherry-picked samples (AID 1159567). The class given is functional, cell-based.
A short description of assay [14]: Dd2 malaria parasite growth inhibition potency – SYBR Green, dry powder samples, dose response (AID 1159566).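 Note: potency for growth inhibition with lower SYBR green DNA signal.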 The class given is functional, cell-based.
Assay [15] in a line: COV362 cell viability loss – plate reader, dry powder, SA12, cytotoxicity control for PAX8 inhibitor project, dose response (AID 743144). The class given is functional, cell-based.
Assay [16] in a line: Late stage assay provider results from the probe development effort to identify selective inhibitors of heat shock protein 90 (HSP90): Absorbance-based cell proliferation assay in SKBR3 cells. The following applies: SK-BR-3. The class given is functional.
Assay [17] can be described thus: Late stage assay provider results from the probe development effort to identify selective inhibitors of heat shock protein 90 (HSP90): Absorbance-based cell proliferation assay in MCF7 cells. The class given is functional.
A short description of assay [18]: OV-90 cell viability loss – plate reader, dry powder, SA8, PAX8 inhibitor project, dose response (AID 743149). The class given is functional, cell-based.
Assay [19] in a line: COV434 cell viability loss – plate reader, dry powder, SA7, cytotoxicity control for PAX8 inhibitor project, dose response (AID 743145). The class given is functional, cell-based.
The nature of assay [20]: OVCAR-3 cell viability loss – plate reader, dry powder samples, PAX8 inhibitor project, dose response (AID 743044). The class given is functional, cell-based.
A short description of assay [21]: Luminescence-based cell-based high throughput dose response assay to identify activators of the DAF-12 from the parasite S. stercoralis (ssDAF-12). The class given is functional.
In assay [22] the target is T1, Oxysterols receptor LXR-beta (Homo sapiens, UniProt P55055).
T1 sequence (P55055 whole entry): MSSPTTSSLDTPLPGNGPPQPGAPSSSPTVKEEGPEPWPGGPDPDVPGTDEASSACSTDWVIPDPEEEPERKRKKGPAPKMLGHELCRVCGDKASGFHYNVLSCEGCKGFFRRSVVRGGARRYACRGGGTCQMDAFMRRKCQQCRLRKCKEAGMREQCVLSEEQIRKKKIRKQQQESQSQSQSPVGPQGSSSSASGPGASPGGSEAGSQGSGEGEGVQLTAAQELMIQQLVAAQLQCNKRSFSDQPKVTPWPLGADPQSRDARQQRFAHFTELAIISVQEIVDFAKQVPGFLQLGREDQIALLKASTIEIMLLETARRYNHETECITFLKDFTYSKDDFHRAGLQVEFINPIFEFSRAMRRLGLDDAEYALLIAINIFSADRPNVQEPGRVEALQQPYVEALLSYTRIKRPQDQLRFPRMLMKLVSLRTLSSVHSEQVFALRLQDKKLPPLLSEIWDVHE
As to the kind of experiment: LXR agonists, Gal4 luciferase reporter, dose response, counter-screen for ssDAF-12 agonist project, cell-based, luminescence, HEK293, S. stercoralis campaign (AID 720737). The note with it: read-out: IC50 (the source's name). The class given is functional. For orientation: In a reporter assay the amount or activity of a reporter protein is the signal.

The nature of assay [23]: Luminescence Cell-Based Dose Response HTS to Identify Activators of Luciferase Translation or Activity in H4 […] Cells. [Related pubchem assays: 1829 (Project Summary), 1814 (Primary HTS)]. The class given is functional.
Assay [24] is described as follows: cells.
The target of assay [25] is T1, Oxysterols receptor LXR-beta. The class given is functional, cell-based.
Assay [26] is described as follows: A2780 cell killing – plate reader, dry powder samples, cytotoxicity control, dose response (AID 743046). The class given is functional, cell-based.
Assay [27] is described as follows: IGROV1 cell killing – plate reader, dry powder samples, PAX8 inhibitor project, dose response (AID 743043). The note with it: IGROV-1. The class given is functional, cell-based.
The nature of assay [28]: toxicity toward immortalized ovarian surface epithelium – cell-based, plate reader, dry powder samples, cytotoxicity control for PAX8 inhibitor project, dose response (AID 743045). The class given is functional.

Paired box protein Pax-8, sequence (Q06710 whole entry): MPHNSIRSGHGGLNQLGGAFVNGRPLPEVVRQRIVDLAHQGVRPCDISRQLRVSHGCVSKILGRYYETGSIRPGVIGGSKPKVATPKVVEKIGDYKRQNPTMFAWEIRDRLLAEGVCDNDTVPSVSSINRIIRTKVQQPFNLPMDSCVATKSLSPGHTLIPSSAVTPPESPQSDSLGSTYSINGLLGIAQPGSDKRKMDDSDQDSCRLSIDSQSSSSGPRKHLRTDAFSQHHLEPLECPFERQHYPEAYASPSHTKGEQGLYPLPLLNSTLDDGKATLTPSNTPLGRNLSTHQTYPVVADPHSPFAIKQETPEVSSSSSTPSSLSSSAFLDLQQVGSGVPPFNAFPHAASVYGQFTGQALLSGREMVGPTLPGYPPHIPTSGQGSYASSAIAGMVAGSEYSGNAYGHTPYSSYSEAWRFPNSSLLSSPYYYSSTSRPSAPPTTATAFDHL

In the case of `Cn1nc(-c2ccc(Cl)cc2)c2cc(C(=O)N3CCN(c4ccccc4)CC3)sc21`, in [1], the AC50 is > 52 µM (inactive).
For `CCOC(=O)C1CCCN(S(=O)(=O)c2ccc(S(=O)(=O)N3CCCC3)cc2)C1` (centres undefined), the AC50 in assay [2] was 2.94 µM (active); in assay [3], 0.821 µM (active); in [4], 2.1 µM (active).
For the molecule `COc1cccc(C#Cc2ccc([C@@H]3[C@@H](C#N)N(C(=O)C4CCCCC4)[C@H]3CO)cc2)c1`, the AC50 in assay [5] is 1.11 µM (active); in assay [6] it was 46.5 µM (active); in [7], 5.72 µM (active); in assay [8] it was 15.9 µM (active); in assay [9] it was > 70 µM (inactive); in [10], 26.5 µM (active). Further, the AC50 in assay [11] was 8.61 µM (active); in [12], 1.13 µM (active); in [13], 0.865 µM (active); in [14] it was 0.422 µM (active); in [15], > 70 µM (inactive).
For the molecule `O=C(NCc1cccnc1)c1coc(=O)c(Br)c1`, the values for the IC50 in [16] and in assay [17] were 12.8 µM (inactive) and 3.5 µM (active), respectively.
In the case of `CC(C)c1cc(C(=O)OCC(=O)N2CCN(C(=O)c3ccco3)CC2)c(O)c(C(C)C)c1`, the concentration at half-maximal activity (AC50) in [18] was 81.3 µM (active); in [19] it was 13.7 µM (active); in assay [20] it was 49.9 µM (active); in [7], 45.8 µM (active); in assay [8], 10.8 µM (active); in assay [11] it was 1.58 µM (active).
Regarding `COc1ccc(C(=N)NOC(=O)c2cccs2)cc1`, the IC50 in assay [21] is > 67.6 µM (inactive). In assay [22], the EC50 was > 67.6 µM (inactive).
As for `Cc1occc1C(=O)N=Nc1c(O)n(C)c2ccccc12`, the EC50 in assay [23] is 0.526 µM (active); in assay [24] it was > 67.5 µM (inactive); in assay [25], > 67.5 µM (inactive).
Regarding `COc1ccc(-c2ccc3c(c2)[C@H]2[C@H](CCN2S(=O)(=O)c2ccc(OC)cc2)[C@H](CO)N3C)cc1`, the AC50 in assay [26] is 1.52 µM (active); in assay [20], 3.15 µM (active); in assay [27] it was 5.8 µM (active); in assay [9], 7.31 µM (active); in assay [11], 7.21 µM (active); in [28] it was 6.56 µM (active).

As usually defined, the AC50 is the midpoint of the concentration-response curve, whichever way the signal moves. For orientation: IC50 means the concentration that gives 50% inhibition.

The record behind these values is ChEMBL document CHEMBL1201862, “PubChem BioAssay data set” (2004).
